From patent publication US9346761B2, “Arginine methyltransferase inhibitors and uses thereof” (Epizyme, Inc., priority 2013, dated 2016)
pIC50: −log10 of the molar value.

Columns and labels:
Full-length human PRMT6 = target: T1, Full-length human PRMT6 (Homo sapiens, UniProt Q96LA8); experiment: PRMT6 biochemical assay (3H-SAM Flashplate, peptide substrate)
T1 construct: Flag-PRMT6-His was eluted with 200 ug/ml FLAG peptide in the same buffer; made in house; host or cells: HEK 293F cells (BacMam virus, pFastBacMam)
T1 sequence (Q96LA8 with tags, fused parts or gaps): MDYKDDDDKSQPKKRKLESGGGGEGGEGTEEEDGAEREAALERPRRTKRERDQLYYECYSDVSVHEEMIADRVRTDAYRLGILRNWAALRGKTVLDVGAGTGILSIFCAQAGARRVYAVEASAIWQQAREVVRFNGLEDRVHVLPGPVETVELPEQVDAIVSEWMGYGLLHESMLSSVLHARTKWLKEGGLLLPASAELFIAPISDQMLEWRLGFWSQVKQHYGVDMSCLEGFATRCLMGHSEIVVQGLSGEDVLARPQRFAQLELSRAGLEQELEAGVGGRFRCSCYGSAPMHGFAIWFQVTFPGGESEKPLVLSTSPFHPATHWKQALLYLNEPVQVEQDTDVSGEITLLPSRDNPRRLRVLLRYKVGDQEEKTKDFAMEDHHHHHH
Method in brief: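 Flag-PRMT6-His from baculovirus-infected cells, preincubated with compound 30 min at room temperature, then SAM/3H-SAM and biotinylated H4 36-50 peptide added; 20 mM Bicine pH 7.6, TCEP, BSG, Tween 20. Quenched with cold SAM, captured on streptavidin Flashplates; % inhibition from SAH/DMSO controls, 3- or 4-parameter IC50 fit.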

[1] = target: T2, Full-length human PRMT1 isoform 1 (Homo sapiens, UniProt Q99873); experiment: PRMT1 biochemical assay (3H-SAM Flashplate, peptide substrate)
T2 construct: GST-tagged PRMT1; made in house; host or cells: High Five insect cells (baculovirus, pFastBacI)
T2 sequence (Q99873 with tags, fused parts or gaps): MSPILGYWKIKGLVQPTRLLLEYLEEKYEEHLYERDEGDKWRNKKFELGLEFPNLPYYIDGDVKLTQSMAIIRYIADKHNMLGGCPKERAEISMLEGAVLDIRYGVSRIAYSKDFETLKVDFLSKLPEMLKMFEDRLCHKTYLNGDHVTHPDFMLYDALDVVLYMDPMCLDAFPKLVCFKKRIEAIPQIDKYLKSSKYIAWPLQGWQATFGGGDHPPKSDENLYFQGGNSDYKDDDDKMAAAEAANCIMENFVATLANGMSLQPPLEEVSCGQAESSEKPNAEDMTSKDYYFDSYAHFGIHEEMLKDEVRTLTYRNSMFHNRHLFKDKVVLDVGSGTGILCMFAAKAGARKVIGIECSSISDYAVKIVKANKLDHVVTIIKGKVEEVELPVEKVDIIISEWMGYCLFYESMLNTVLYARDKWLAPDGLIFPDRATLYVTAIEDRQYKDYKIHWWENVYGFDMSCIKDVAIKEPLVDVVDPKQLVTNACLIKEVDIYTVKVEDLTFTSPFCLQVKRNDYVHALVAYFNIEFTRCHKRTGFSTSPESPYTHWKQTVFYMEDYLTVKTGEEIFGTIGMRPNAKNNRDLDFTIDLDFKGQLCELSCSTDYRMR
Method in brief: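 GST-tagged full-length PRMT1 from baculovirus-infected cells, preincubated 30 min at room temperature with compound in 20 mM Bicine pH 7.6, TCEP, BSG, Tween 20. Reaction started with 3H-SAM plus biotinylated peptide, stopped with 300 uM unlabelled SAM. Streptavidin Flashplate capture and scintillation counting; % inhibition curve-fitted for IC50.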

Compound | pIC50 (Full-length human PRMT6) | pIC50 [1]
COCCn1cc(CN(C)CCN)c(-c2ccc(F)cc2)n1 [Compound 5] | 6.00 to 7.00 | 5.52 to 6.00
COCCn1ncc(CN(C)CCN)c1-c1ccc(F)cc1 [Compound 6] | 6.00 to 7.00 | 5.00 to 5.52
CCn1ncc(CN(C)CCNC)c1-c1ccc(F)cc1 [Compound 7] | > 7.00 | 6.00 to 7.00
CCn1cc(CN(C)CCNC)c(-c2ccc(F)cc2)n1 [Compound 8] | 6.00 to 7.00 | 5.52 to 6.00
CN(CCN)Cc1c[nH]nc1-c1ccc(Cl)cc1 [Compound 95] | > 7.00 | > 7.00
CN(CCN)Cc1c[nH]nc1-c1ccc(OCC(F)(F)F)cc1 [Compound 96] | > 7.00 | > 7.00
CC(C)Oc1ccc(-c2n[nH]cc2CN(C)CCN)cc1F [Compound 97] | > 7.00 | > 7.00
CN(CCN)Cc1c[nH]nc1-c1ccc(C2CCOCC2)cc1 [Compound 98] | > 7.00 | > 7.00
CN(CCN)Cc1c[nH]nc1-c1ccc(F)cc1F [Compound 99] | > 7.00 | > 7.00
CN(CCN)Cc1n[nH]cc1-c1ccc(C#N)cc1 [Compound 100] | > 7.00 | > 7.00
CC(C)c1ccc(-c2c[nH]nc2CN(C)CCN)cc1 [Compound 101] | 6.00 to 7.00 | > 7.00
CN(CCN)Cc1n[nH]cc1-c1ccc(Cl)cc1 [Compound 102] | > 7.00 | > 7.00
CN(CCN)Cc1n[nH]cc1-c1ccc(C(F)(F)F)cc1 [Compound 103] | > 7.00 | > 7.00
CN(CCN)Cc1n[nH]cc1-c1ccc(C2CC2)cc1 [Compound 104] | > 7.00 | > 7.00
CN(CCN)Cc1n[nH]cc1-c1ccc(OC(F)(F)F)cc1 [Compound 105] | > 7.00 | > 7.00
CN(CCN)Cc1c[nH]nc1-c1cc(F)ccc1Cl [Compound 106] | > 7.00 | 6.00 to 7.00
COc1ccc(-c2n[nH]cc2CN(C)CCN)c(F)c1 [Compound 107] | > 7.00 | > 7.00
Cc1ccc(-c2n[nH]cc2CN(C)CCN)c(F)c1 [Compound 108] | > 7.00 | > 7.00
COc1ccccc1-c1n[nH]cc1CN(C)CCN [Compound 109] | 6.00 to 7.00 | 6.00 to 7.00
Cc1cc(C#N)ccc1-c1n[nH]cc1CN(C)CCN [Compound 110] | > 7.00 | > 7.00
CN(CCN)Cc1c[nH]nc1-c1cc(F)cc(F)c1 [Compound 111] | > 7.00 | > 7.00
CC(=O)c1cccc(-c2n[nH]cc2CN(C)CCN)c1 [Compound 112] | > 7.00 | > 7.00
CN(CCN)Cc1cnn(CC(O)CO)c1-c1ccc(F)cc1 (stereo not drawn) [Compound 113] | 6.00 to 7.00 | 5.52 to 6.00
CN(CCN)Cc1c[nH]nc1-c1ccc(OC2CC2)cc1 [Compound 114] | > 7.00 | > 7.00
CC(O)c1ccc(-c2n[nH]cc2CN(C)CCN)cc1 (stereo not drawn) [Compound 115] | > 7.00 | > 7.00
CN(CCN)Cc1c[nH]nc1-c1ccc(C2CC2)cc1 [Compound 116] | > 7.00 | > 7.00

Compound | pIC50 (Full-length human PRMT6) | pIC50 [1]
CN(CCN)Cc1c[nH]nc1-c1ccc(C(F)(F)F)c(Cl)c1 [Compound 117] | > 7.00 | > 7.00
CN(CCN)Cc1c[nH]nc1-c1ccc(Cl)c(F)c1 [Compound 118] | > 7.00 | > 7.00
CN(CCN)Cc1n[nH]cc1-c1ccc(OC2CC2)cc1 [Compound 119] | > 7.00 | > 7.00
CN(CCN)Cc1c[nH]nc1-c1cc(F)cc(Cl)c1 [Compound 121] | > 7.00 | > 7.00
CN(CCN)Cc1c[nH]nc1-c1cccc(Cl)c1 [Compound 122] | > 7.00 | > 7.00
CN(CCN)Cc1c[nH]nc1-c1cccc(Cl)c1F [Compound 123] | > 7.00 | > 7.00
CN(CCN)Cc1c[nH]nc1-c1ccc(F)c(Cl)c1 [Compound 124] | > 7.00 | > 7.00
COc1ccc(-c2n[nH]cc2CN(C)CCN)cc1Cl [Compound 125] | > 7.00 | > 7.00
Cc1ccc(-c2n[nH]cc2CN(C)CCN)cc1Cl [Compound 126] | > 7.00 | > 7.00
COc1cc(Cl)cc(-c2n[nH]cc2CN(C)CCN)c1 [Compound 127] | > 7.00 | > 7.00
CN(CCN)Cc1cn(CC2CCOCC2)nc1-c1ccc(F)cc1 [Compound 128] | 5.52 to 6.00 | 5.00 to 5.52
Cc1c(F)cccc1-c1n[nH]cc1CN(C)CCN [Compound 129] | > 7.00 | 6.00 to 7.00
COc1cccc(-c2n[nH]cc2CN(C)CCN)c1 [Compound 130] | > 7.00 | 6.00 to 7.00
Cc1cccc(-c2n[nH]cc2CN(C)CCN)c1 [Compound 131] | > 7.00 | > 7.00
CN(CCN)Cc1c[nH]nc1-c1ccc(Cl)cc1F [Compound 132] | > 7.00 | > 7.00
Cc1cc(Cl)ccc1-c1n[nH]cc1CN(C)CCN [Compound 133] | > 7.00 | > 7.00
COc1ccc(-c2n[nH]cc2CN(C)CCN)cc1F [Compound 134] | > 7.00 | > 7.00
CN(CCN)Cc1c[nH]nc1-c1ccc(C(F)(F)F)cc1Cl [Compound 135] | > 7.00 | > 7.00
CCNC(=O)c1ccc(-c2n[nH]cc2CN(C)CCN)cc1 [Compound 136] | > 7.00 | > 7.00
CN(CCN)Cc1c[nH]nc1-c1cc(Cl)cc(Cl)c1 [Compound 137] | > 7.00 | > 7.00
CN(CCN)Cc1n[nH]cc1-c1ccc(OC(F)F)cc1 [Compound 138] | > 7.00 | > 7.00
CN(CCN1CCCC1)Cc1c[nH]nc1-c1ccc(C#N)cc1 [Compound 139] |  | < 5.00
CN(CCN)Cc1c[nH]nc1-c1ccccc1C#N [Compound 140] | 5.52 to 6.00 | 6.00 to 7.00
CN(CCN)Cc1c[nH]nc1-c1ccc(C(F)(F)F)c(F)c1 [Compound 141] | > 7.00 | > 7.00
COc1cc(-c2n[nH]cc2CN(C)CCN)ccc1F [Compound 142] | > 7.00 | > 7.00
CCN(CC)C(=O)c1ccc(-c2n[nH]cc2CN(C)CCN)cc1 [Compound 143] | 6.00 to 7.00 | 6.00 to 7.00

Compound | pIC50 (Full-length human PRMT6) | pIC50 [1]
CC(C)Oc1ccc(-c2c[nH]nc2CN(C)CCN)cc1F [Compound 144] | > 7.00 | > 7.00
CN(CCN)Cc1n[nH]cc1-c1ccc(C2CCOCC2)cc1 [Compound 145] | > 7.00 | > 7.00
COc1ccc(-c2n[nH]cc2CN(C)CCN)c(Cl)c1 [Compound 146] | > 7.00 | > 7.00
CN(CCN)Cc1c[nH]nc1-c1cc(C#N)ccc1Cl [Compound 147] | > 7.00 | 5.52 to 6.00
CN(CCN)Cc1c[nH]nc1-c1ccc(C(F)(F)F)cc1F [Compound 148] | > 7.00 | 6.00 to 7.00
CN(CCN)Cc1c[nH]nc1-c1cccc(N(C)C)c1 [Compound 149] | > 7.00 | > 7.00
CCOC(=O)c1cccc(-c2n[nH]cc2CN(C)CCN)c1 [Compound 150] | > 7.00 | > 7.00
COc1cc(F)ccc1-c1n[nH]cc1CN(C)CCN [Compound 151] | 6.00 to 7.00 | 6.00 to 7.00
Cc1cc(F)ccc1-c1n[nH]cc1CN(C)CCN [Compound 152] | > 7.00 | > 7.00
COc1ccc(-c2n[nH]cc2CN(C)CCN)cc1 [Compound 153] | > 7.00 | > 7.00
COc1ccc(-c2n[nH]cc2CN(C)CCN)c(C(F)(F)F)c1 [Compound 154] | 6.00 to 7.00 | 6.00 to 7.00
COc1ccc(-c2n[nH]cc2CN(C)CCN)c(C)c1 [Compound 155] | > 7.00 | > 7.00
CN(CCN)Cc1c[nH]nc1-c1cc(Cl)ccc1F [Compound 156] | > 7.00 | 6.00 to 7.00
COc1ccc(Cl)cc1-c1n[nH]cc1CN(C)CCN [Compound 157] | 6.00 to 7.00 | 5.52 to 6.00
Cc1ccc(C#N)cc1-c1n[nH]cc1CN(C)CCN [Compound 158] | 6.00 to 7.00 | 5.52 to 6.00
Cc1ccc(F)cc1-c1n[nH]cc1CN(C)CCN [Compound 159] | > 7.00 | > 7.00
COc1ccc(F)cc1-c1n[nH]cc1CN(C)CCN [Compound 160] | 6.00 to 7.00 | 6.00 to 7.00
Cc1ccccc1-c1n[nH]cc1CN(C)CCN [Compound 161] | > 7.00 | 6.00 to 7.00
Cc1ccc(-c2n[nH]cc2CN(C)CCN)cc1 [Compound 162] | > 7.00 | > 7.00
CCN(C)C(=O)c1ccc(-c2n[nH]cc2CN(C)CCN)cc1 [Compound 163] | > 7.00 | 6.00 to 7.00
CC(C)CN(C)C(=O)c1ccc(-c2n[nH]cc2CN(C)CCN)cc1 [Compound 164] | > 7.00 | 6.00 to 7.00
CCOc1ccc(-c2n[nH]cc2CN(C)CCN)cc1 [Compound 166] | > 7.00 | > 7.00
COCCOc1ccc(-c2n[nH]cc2CN(C)CCN)cc1 [Compound 167] | > 7.00 | > 7.00
Cc1[nH]nc(-c2ccc(F)cc2)c1CN(C)CCN [Compound 169] | > 7.00 | 6.00 to 7.00
CC(C)Cc1ccc(-c2c[nH]nc2CN(C)CCN)cc1 [Compound 170] | > 7.00 | > 7.00
